Legend:
progerin-lamin A binding = target: T1, progerin-lamin A binding (Homo sapiens, UniProt P02545); assay: GST pull-down assay of progerin-lamin A binding; details: 5 μM
T1 construct: expressed in transfected cells; host or cells: HEK293 (GFP-progerin); the GST-lamin A bait is a recombinant protein, with E. coli B834 (DE3) named for the lamin A/C fragments
T1 sequence (P02545 1-611 isoform P02545-6): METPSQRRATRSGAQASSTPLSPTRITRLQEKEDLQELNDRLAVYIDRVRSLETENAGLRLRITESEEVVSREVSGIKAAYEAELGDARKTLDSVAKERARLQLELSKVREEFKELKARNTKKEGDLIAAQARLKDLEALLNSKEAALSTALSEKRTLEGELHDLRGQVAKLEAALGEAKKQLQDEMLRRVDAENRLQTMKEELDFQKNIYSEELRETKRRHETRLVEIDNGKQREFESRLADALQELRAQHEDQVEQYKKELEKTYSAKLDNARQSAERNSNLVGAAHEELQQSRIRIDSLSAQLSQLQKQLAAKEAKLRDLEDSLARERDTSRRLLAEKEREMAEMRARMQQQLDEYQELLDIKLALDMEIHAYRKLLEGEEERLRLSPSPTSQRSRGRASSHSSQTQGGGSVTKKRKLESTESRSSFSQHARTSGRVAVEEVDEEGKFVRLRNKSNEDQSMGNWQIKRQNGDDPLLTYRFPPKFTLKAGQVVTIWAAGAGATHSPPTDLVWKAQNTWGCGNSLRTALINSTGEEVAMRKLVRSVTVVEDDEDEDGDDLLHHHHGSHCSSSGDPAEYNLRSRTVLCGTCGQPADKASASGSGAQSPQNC
Method: Fig. 1 SLC-D011 ameliorates premature aging features of HGPS. A. HEK293 cells were transiently transfected with expression vector encoding wild-type lamin A (WT-LA), lamin A-C661A (LA-C661A), progerin, or progerin-C611A. LA-C661A or progerin-C611A with point mutation in CaaX motif was predicted to be lack of farnesylation, […] that of authentic WT-LA or progerin. GFP-conjugated empty expression vector was used as a negative control. Cells were visualized at 24 h after transfection. B Transient transfection of HEK293 cells with expression vector encoding progerin or progerin-G611A leads to reduced expression of H3K9me3 (n = 3 independent experiments; two-tailed Student’s t test). C. JH4 derivatives (JH010 and SLC-D011(D011)) inhibit lamin A and progerin interaction. For binding inhibition assay, bead-conjugated lamin A (GST-LA) was incubated with HEK293 cells, transiently transfected with GFP-progerin (PG), and treated with indicated chemicals. Actin was used as a loading control. PPT, co-precipitated materials with recombinant proteins; Sup supernatant. 5 μM of each chemical was used for binding assay. […] H3K9me3 reduction is a well-known marker for premature aged cells. Thus, H3K9me3 expression was evaluated by immunostaining. […] Cell viability was determined by MTT assay after incubation with chemicals for 7 days (n = 3 independent experiments; two-tailed Student’s t test). […]

[1] = Liver microsomal stability, human; type: in vitro ADME; details: liver microsomes, read-out: Liver microsomal stability (% remaining during 30min)
Method: At pre-set time-points, blood concentration of JH4 was determined by LC-MS/MS analysis[22],[23]. Other chemicals were also tested using similar protocol. In vitro ADME studies (plasma protein binding, CYP inhibition, microsomal stability, plasma stability, and hERG inhibition) were performed by New Drug Development Center (Daegu, Korea) using standard protocols[24],[25].

Lmna G609G/G609G mouse = test system: Lmna G609G/G609G mouse; parameters: method as in PMID 27617860; details: intraperitoneal injection; cited from earlier work

| Structure (SMILES) | Effect on interaction of progerin and lamin A (progerin-lamin A binding) | remaining at 0.5 h [1] [%] | Extension of life span (Lmna G609G/G609G mouse) | Increase of life span (Lmna G609G/G609G mouse) |
| --- | --- | --- | --- | --- |
| CC1(C)Oc2cc3oc(=O)ccc3cc2C[C@@H]1OC/C=C/c1ccccc1 [SLC-D011] | could block the interaction of progerin and lamin A | 21.5 |  |  |
| CC1(C)Oc2cc3oc(=O)ccc3cc2CC1OC(=O)C=Cc1cccnc1 (stereo not shown) [JH4] |  |  | ~ 4 weeks | ~ 25% |

Reference: article PMC7782499, “Progerinin, an optimized progerin-lamin A binding inhibitor, ameliorates premature senescence phenotypes of Hutchinson-Gilford progeria syndrome” (Communications Biology, 2021)
